Reference: PMC9065877, “Safety, tolerability and pharmacokinetics of the oligomer modulator anle138b with exposure levels sufficient for therapeutic efficacy in a murine Parkinson model: A randomised, double-blind, placebo-controlled phase 1a trial” (EBioMedicine, 2022)
Where two headings read alike, the source gives them in different places.

Assays:
[1] = 28-day cynomolgus monkey toxicity study; conditions: in vivo; for Cmax: 125 mg/kg/day, read-out: Cmax at NOAEL
Excerpt: This trial followed the recommendations of the EMA (European Medicines Agency) (EMEA/CHMP/SWP/28367/07 Rev. 1; 20 July 2017) and the FDA (Food and Drug Administration) (Guidance for Industry: Estimating the Maximum Safe Starting Dose in Initial Clinical Trials for Therapeutics in Adult Healthy Volunteers. U.S. Department of Health and Human Services Food and Drug Administration Center for Drug Evaluation and Research (CDER) July 2005) for dose finding in a first-in-human study. The safe starting dose was set based on toxicity studies in animals. In a 28-day toxicity study in rats, the no-observed-adverse-effect-level (NOAEL) was determined to be 50 mg/kg/day (human equivalent dose of 8·1 mg/kg using the FDA factor of 6·2 according to the FDA Guidance for Industry “Estimating the Maximum Safe Starting Dose in Initial Clinical Trials for Therapeutics in Adult Healthy Volunteers”). Cmaxǀexposure at 50 mg in males were 2460ǀ25600 and in females 2680ǀ21700 ng/mL ǀ ng*h/mL. In a 28-day cynomolgus monkey toxicity study, the NOAEL was 125 mg/kg/day (human equivalent dose of 40·3 mg/kg). Cmaxǀexposure at 125 mg/kg/day were 3170ǀ15700 (males) and 2720ǀ9720 (females) ng/mL ǀ ng*h/mL. Based upon these NOAELs a safe starting dose derived from the more sensitive species (rat) was calculated using a safety factor of 10 (i.e., 0·8 mg/kg), which corresponds to a dose of approximately 50 mg assuming a body weight of 60 kg. […] Escalation between doses was planned to be flexible depending on emerging results but not to exceed an increment of 2-fold.

[2] = test system: striatal dopamine (DA) release in MI2 mice; experiment: Dose-response study in MI2 mice: striatal dopamine release by in vivo microdialysis; design: species or system mouse; conditions: up to 300 mg/kg/day in food
Protocol: An anle138b pharmacodynamics dose-response study was performed using MI2 mice, a novel model of α-synucleinopathy characterized by a progressive PD-like phenotype including accumulation of α-synuclein inclusions in nigrostriatal dopaminergic neurons and impairment of striatal dopamine (DA) release (Wegrzynowicz et al., 2019). The research was carried out in accordance with the Animals (Scientific Procedures) Act 1986 Amendment Regulations 2012 after the review by the University of Cambridge Animal Welfare and Ethical Review Body (AWERB), under the project license 70/8383. Anle138b treatment was commenced at 6 months, an age when impairment of striatal DA release is already observed in MI2 mice, but prior to nigral neuronal loss. […] After 2 months of treatment (at the age of 8 months), striatal release of DA was analysed using in vivo microdialysis, as previously reported (Wegrzynowicz et al., 2019). […] DA levels in the microdialysates were measured by high performance liquid chromatography with electrochemical detection, as described in (Garcia-Reitböck et al., 2010). […] The obtained chromatograms were analysed with Chromeleon Chromatography Data System (V 6·2; Dionex). […]

Work on `Brc1cccc(-c2cc(-c3ccc4c(c3)OCO4)n[nH]2)c1` [anle138b, 3-(1,3-benzodioxol-5-yl)-5-(3-bromophenyl)-1H-pyrazole] yielded a Cmax ([1]; female, females) of 2720 ng/mL, an NOAEL at 28 days ([1]; 28-day toxicity study) of 125 mg/kg/day and a Cmax ([1]; male, males) of 3170 ng/mL. The “Effect on striatal dopamine release at higher doses” value [2] was “stabile maximal effects were observed”.
